Results on 7 molecules are retold here after PubChem BioAssay (NCI).

Common to all, as to test: inhibition of tumour cell growth, NCI panel, 48 h
In experiment [1] the test system is 786-0 renal.
The test system of experiment [2] is ACHN renal.
Experiment [3] deals with HCT-116 colon.
Experiment [4] concerns CCRF-CEM leukemia.
For experiment [5], the system named is A549 NSCLC.
The test system of experiment [6] is SK-OV-3 ovarian.
The subject of experiment [7] is SN12C renal.
Experiment [8] deals with TK-10 renal.
Experiment [9] deals with SW-620 colon.
The test system of experiment [10] is PC-3 prostate.

Each structure is given as a SMILES string. Where “and” joins values, the source holds several entries; their conditions need not be identical. Equal entries are not always repeated.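 The compound was tested at five concentrations on cells cultured in 96-well plates, with a 48-hour exposure period. GI50 is the concentration that inhibits growth by half. Definition used: TGI = concentration required for complete inhibition of growth.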

Turning to `CCC1(N2C(=O)c3c(F)c(F)c(F)c(F)c3C2=O)C(=O)NC(=O)N(c2ccccc2)C1=O` (stereo not given), the GI50 in [1] is 3.34 µM; in experiment [2], 4.02 µM; in [3] it was 4.1 µM; in experiment [4] it was 1.31 µM; in [5], 14 µM; in [6] it was 10.6 µM. Moreover, the GI50 was 1.57 µM in [7], 2.4 µM in experiment [8], 1.76 µM in experiment [9] and 2.28 µM in experiment [10]. The TGI came out at 13.9 µM in [1]; 14.9 µM in [2]; 18.2 µM in [3]; 3.8 µM in experiment [4]; 28.6 µM in [5]; 31 µM in [6]. The TGI in [7] amounted to 3.54 µM; in experiment [8] it was 5.57 µM; in experiment [9], 3.96 µM; in [10] it was 16 µM.

For `O=c1[nH]c2cc(O)ccc2n2cc3c(F)cccc3c12`, the GI50 in experiment [1] was 4.29 µM; in [2], 2.04 µM; in [3], 0.881 µM; in experiment [4], 2.68 µM; in experiment [5], 1.31 µM; in experiment [6], 1.65 µM. Also, the GI50 is 2.57 µM in [7], over 100 µM in experiment [8], 0.477 µM in experiment [9] and 4.54 µM in [10]. Besides, the TGI in [1], in [2], in experiment [3], in [4], in experiment [5] and in experiment [6] was over 100 µM throughout. Further, the TGI in [7], in experiment [8], in experiment [9] and in experiment [10] was over 100 µM in each case.

As for `O=C(CN=Cc1cccs1)CSC(c1ccccc1)c1ccccc1`, the GI50 in experiment [1] is 34 µM; in [2], 28.8 µM; in [3], 16.4 µM; in experiment [4] it was 20.8 µM; in experiment [5] it was 21.7 µM; in experiment [6] it was 16.3 µM. Also, the GI50 in [7] is 19.6 µM; in experiment [8], 30.5 µM; in [9], 29.8 µM; in experiment [10], 17.5 µM. For the same molecule, the TGI in experiment [1] was over 100 µM; in experiment [2] it was 79.6 µM; in experiment [3], 40.7 µM; in experiment [4], over 100 µM; in experiment [5], 76.1 µM; in experiment [6], 58.2 µM. In addition, the TGI was 36.1 µM in [7], over 100 µM in experiment [8], over 100 µM in experiment [9] and 47.9 µM in experiment [10].

Consider `CCN(CC)CCOc1ccc(C2=C(c3ccccc3)CCc3cc(OC)ccc32)cc1`, for which the GI50 was 1.51 µM in [1]; 4.2 µM in experiment [2]; 1.55 µM in experiment [3]; 5.59 µM in experiment [4]; 4.02 µM in experiment [5]; 3.22 µM in [6]. The GI50 in experiment [7] was 5.48 µM; in experiment [8] it was 2.74 µM; in experiment [9], 2.78 µM; in [10] it was 7.66 µM. In addition, the TGI was 2.88 µM in experiment [1]; 15.4 µM in experiment [2]; 4.19 µM in experiment [3]; over 49.3 µM in experiment [4]; 16.2 µM in [5]; 13.6 µM in experiment [6]. The TGI is 20 µM in [7], 9.47 µM in experiment [8], 8.09 µM in experiment [9] and over 51.1 µM in experiment [10].

`CCOP(=O)(OCC)C(F)(F)CC1CCCCC1`: the TGI in [1], in experiment [2], in [3], in experiment [4], in experiment [5] and in experiment [6] was over 10 µM throughout. The TGI in experiment [7], in experiment [8], in experiment [9] and in experiment [10] was over 10 µM throughout.

As to `CCCOc1c2cc(COC3OC(CO)C(O)C(O)C3O)cc1Cc1cc(COC3OC(CO)C(O)C(O)C3O)cc(c1OCCC)Cc1cc(COC3OC(CO)C(O)C(O)C3O)cc(c1OCCC)Cc1cc(COC3OC(CO)C(O)C(O)C3O)cc(c1OCCC)C2` (stereo not given), the GI50 in experiment [1] is > 100 µM and 28.1 µM; in experiment [2], > 100 µM and 23.9 µM; in [3] it was 48.6 µM and > 100 µM and 16.7 µM; in experiment [4], 7.52 µM and 17.6 µM; in experiment [5], 49.5 µM and > 100 µM and 26.9 µM; in [6] it was > 100 µM and 34.9 µM. In addition, the GI50 in experiment [7] was 96.6 µM and > 100 µM and 18.5 µM; in experiment [8], > 100 µM and 46.8 µM; in [9] it was 99.9 µM and > 100 µM and 15.6 µM; in [10], > 100 µM and 17.2 µM. Also, the TGI in experiment [1] was > 100 µM and 89.8 µM; in [2] it was > 100 µM and 63.4 µM; in experiment [3], > 100 µM and 32.2 µM; in [4], > 100 µM and 36.5 µM; in [5], > 100 µM and 94.4 µM; in [6], over 100 µM. Also, the TGI was > 100 µM and 43.5 µM in experiment [7]; over 100 µM in [8]; > 100 µM and 36.2 µM in experiment [9]; > 100 µM and 46.2 µM in experiment [10].

As for `C#Cc1ccc(-n2c(/C=C/c3cc(OC)c(OC)c(OC)c3)nc3ncccc3c2=O)cc1`, the GI50 is 5.31 µM in experiment [1]; 6.63 µM in experiment [2]; 5.17 µM in [3]; 4.9 µM in experiment [4]; 5.65 µM in experiment [5]; 5.33 µM in [6]. Further, the GI50 is 20.5 µM in experiment [7], 17.3 µM in [8], 3.29 µM in experiment [9] and 3.96 µM in [10]. The TGI is over 100 µM in [1]; over 100 µM in experiment [2]; over 100 µM in experiment [3]; over 100 µM in experiment [4]; over 100 µM in [5]; 77.7 µM in experiment [6]. Also, the TGI in experiment [7] is over 100 µM; in experiment [8], 62.9 µM; in experiment [9], 49.6 µM; in experiment [10], over 100 µM.
